Test results reported in ChEMBL document CHEMBL3991601, “The target landscape of clinical kinase drugs” (Science, 2017).
The source made the active and inactive calls. For most assays here, no stated cut-off is given here; in the data, actives have a measured Kd and inactives only a lower limit.

Experiments:
[1] = biological target: Casein kinase II subunit alpha' (Homo sapiens, UniProt P19784)
[2] = biological target: T1, Mitogen-activated protein kinase kinase kinase kinase 3 (Homo sapiens, UniProt Q8IVH8)
T1 sequence (Q8IVH8 whole entry): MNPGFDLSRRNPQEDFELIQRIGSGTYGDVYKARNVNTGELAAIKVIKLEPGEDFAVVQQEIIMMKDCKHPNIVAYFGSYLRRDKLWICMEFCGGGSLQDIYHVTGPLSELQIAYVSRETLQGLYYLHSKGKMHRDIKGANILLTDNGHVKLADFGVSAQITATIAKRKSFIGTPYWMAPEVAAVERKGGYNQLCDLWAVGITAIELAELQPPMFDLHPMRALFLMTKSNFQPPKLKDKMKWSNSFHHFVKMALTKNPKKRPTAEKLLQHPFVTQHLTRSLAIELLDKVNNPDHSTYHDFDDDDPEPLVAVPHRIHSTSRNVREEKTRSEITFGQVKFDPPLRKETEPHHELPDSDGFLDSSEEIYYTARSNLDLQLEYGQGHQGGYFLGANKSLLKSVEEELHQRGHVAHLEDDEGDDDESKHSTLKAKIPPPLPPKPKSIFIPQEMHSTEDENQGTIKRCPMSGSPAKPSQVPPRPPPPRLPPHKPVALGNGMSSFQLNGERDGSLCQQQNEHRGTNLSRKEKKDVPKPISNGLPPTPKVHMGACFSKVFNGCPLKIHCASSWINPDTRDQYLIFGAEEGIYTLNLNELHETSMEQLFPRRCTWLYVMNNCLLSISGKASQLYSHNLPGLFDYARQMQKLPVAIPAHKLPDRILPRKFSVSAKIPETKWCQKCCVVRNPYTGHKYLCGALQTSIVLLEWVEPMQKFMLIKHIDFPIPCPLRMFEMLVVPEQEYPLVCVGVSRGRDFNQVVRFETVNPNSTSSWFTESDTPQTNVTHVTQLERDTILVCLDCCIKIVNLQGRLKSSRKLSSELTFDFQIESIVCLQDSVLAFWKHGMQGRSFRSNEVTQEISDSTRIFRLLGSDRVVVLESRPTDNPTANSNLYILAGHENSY

[3] = biological target: T2, Dynamin-like GTPase OPA1, mitochondrial (Homo sapiens, UniProt O60313)
T2 sequence (O60313 whole entry): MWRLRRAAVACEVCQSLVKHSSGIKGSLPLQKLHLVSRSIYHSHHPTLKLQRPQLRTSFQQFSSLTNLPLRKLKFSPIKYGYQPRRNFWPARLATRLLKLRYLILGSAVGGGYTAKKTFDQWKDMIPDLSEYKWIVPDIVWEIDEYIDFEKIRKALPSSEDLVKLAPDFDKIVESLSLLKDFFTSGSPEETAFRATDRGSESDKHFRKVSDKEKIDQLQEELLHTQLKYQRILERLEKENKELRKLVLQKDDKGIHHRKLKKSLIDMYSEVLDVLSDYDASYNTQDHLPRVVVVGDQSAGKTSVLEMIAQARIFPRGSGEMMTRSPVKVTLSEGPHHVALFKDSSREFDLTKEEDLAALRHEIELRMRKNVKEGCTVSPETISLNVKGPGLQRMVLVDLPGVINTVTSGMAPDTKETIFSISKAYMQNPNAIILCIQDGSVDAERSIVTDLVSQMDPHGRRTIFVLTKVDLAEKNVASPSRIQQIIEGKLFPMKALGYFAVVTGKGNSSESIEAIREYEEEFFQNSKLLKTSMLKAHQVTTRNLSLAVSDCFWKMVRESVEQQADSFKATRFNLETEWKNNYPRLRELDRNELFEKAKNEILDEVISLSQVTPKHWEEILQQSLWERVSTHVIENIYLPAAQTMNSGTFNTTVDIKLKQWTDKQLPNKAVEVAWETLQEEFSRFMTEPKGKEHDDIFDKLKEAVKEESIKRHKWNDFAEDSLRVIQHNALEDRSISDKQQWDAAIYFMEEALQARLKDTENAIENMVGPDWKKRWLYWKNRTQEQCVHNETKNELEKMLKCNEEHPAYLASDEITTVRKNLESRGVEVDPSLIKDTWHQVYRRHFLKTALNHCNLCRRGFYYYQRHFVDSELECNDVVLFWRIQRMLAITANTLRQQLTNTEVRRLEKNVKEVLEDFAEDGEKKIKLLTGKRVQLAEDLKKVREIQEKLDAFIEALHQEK

[4] = biological target: Cyclin-dependent kinase 6 (Homo sapiens, UniProt Q00534)
[5] = biological target: T3, Pyridoxal kinase (Homo sapiens, UniProt O00764)
T3 sequence (O00764 whole entry): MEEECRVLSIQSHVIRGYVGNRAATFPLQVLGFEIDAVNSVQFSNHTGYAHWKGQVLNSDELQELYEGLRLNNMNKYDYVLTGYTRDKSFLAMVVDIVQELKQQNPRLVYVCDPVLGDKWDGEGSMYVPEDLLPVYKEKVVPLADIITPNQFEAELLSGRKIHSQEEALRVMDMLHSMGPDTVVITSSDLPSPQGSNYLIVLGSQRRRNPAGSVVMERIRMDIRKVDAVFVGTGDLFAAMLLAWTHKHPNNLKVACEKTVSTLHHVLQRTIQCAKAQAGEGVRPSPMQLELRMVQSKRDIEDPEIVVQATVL

[6] = biological target: T4, MAP/microtubule affinity-regulating kinase 4 (Homo sapiens, UniProt Q96L34)
T4 sequence (Q96L34 whole entry): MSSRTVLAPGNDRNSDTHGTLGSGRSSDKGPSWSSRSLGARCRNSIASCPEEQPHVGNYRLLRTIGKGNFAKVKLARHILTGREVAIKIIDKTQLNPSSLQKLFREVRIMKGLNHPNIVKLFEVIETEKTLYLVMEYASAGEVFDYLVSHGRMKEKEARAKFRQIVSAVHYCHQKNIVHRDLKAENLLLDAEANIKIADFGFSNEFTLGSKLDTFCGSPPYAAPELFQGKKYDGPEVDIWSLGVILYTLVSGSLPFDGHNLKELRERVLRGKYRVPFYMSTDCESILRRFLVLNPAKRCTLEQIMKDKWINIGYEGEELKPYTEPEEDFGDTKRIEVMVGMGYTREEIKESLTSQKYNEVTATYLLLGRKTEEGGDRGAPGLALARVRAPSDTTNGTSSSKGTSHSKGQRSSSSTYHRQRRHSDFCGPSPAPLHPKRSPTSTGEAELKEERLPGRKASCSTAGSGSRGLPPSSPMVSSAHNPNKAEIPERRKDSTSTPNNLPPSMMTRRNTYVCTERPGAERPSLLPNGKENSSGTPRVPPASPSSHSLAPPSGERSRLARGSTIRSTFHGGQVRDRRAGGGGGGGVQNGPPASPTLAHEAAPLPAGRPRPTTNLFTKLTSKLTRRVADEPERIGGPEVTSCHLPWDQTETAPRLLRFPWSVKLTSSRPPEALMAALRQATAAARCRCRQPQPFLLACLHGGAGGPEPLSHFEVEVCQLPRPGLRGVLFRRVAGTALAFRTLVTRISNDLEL

Casein kinase II subunit alpha', sequence (P19784 whole entry): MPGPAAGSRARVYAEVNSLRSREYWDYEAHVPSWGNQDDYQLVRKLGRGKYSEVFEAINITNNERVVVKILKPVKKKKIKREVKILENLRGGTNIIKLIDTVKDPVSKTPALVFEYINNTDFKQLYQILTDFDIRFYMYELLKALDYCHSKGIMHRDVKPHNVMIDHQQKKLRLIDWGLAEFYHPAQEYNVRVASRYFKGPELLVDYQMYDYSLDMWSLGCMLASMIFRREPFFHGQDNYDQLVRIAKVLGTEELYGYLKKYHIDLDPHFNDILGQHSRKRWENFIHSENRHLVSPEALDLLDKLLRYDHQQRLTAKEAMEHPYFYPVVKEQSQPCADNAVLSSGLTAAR
Cyclin-dependent kinase 6, sequence (Q00534 whole entry): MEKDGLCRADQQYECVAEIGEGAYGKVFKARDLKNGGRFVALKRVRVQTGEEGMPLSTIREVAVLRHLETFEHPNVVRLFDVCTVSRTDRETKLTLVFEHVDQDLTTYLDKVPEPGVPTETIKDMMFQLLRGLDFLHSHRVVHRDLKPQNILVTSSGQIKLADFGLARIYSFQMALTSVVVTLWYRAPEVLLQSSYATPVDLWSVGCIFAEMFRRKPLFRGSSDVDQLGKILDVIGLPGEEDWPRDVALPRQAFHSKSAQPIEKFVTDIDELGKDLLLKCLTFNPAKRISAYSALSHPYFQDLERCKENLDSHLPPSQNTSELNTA

Kd [1]	Kd [2]	Kd [3]	Kd [4]	Kd [5]	Kd [6]	SMILES
> 30 µM (inactive)	> 30 µM (inactive)	> 30 µM (inactive)	> 30 µM (inactive)	> 30 µM (inactive)	> 30 µM (inactive)	COc1cc(N2CCC(N3CCN(C)CC3)CC2)ccc1Nc1ncnc(Nc2ccccc2S(=O)(=O)C(C)C)n1 [ASP-3026]
> 30 µM (inactive)	> 30 µM (inactive)	> 30 µM (inactive)	> 30 µM (inactive)	> 30 µM (inactive)	> 30 µM (inactive)	CCN1CCN(Cc2ccc(-c3cc4c(N[C@H](C)c5ccccc5)ncnc4[nH]3)cc2)CC1 [AEE-788]
0.017 µM (active)	> 30 µM (inactive)	> 30 µM (inactive)	> 30 µM (inactive)	> 30 µM (inactive)	> 30 µM (inactive)	O=C1NC(=O)/C(=C/c2ccc3nccc(-c4ccncc4)c3c2)S1 [GSK-1059615]
7.92 µM (active)	> 30 µM (inactive)	> 30 µM (inactive)	> 30 µM (inactive)	> 30 µM (inactive)	> 30 µM (inactive)	CN1CCC(CNc2ccc3ncc(-c4cccc(OC(F)(F)F)c4)n3n2)CC1 [SGI-1776]
> 30 µM (inactive)	> 30 µM (inactive)	> 30 µM (inactive)	> 30 µM (inactive)	> 30 µM (inactive)	> 30 µM (inactive)	Cn1cc(-c2ccc3nnc(C(F)(F)c4ccc5ncccc5c4)n3n2)cn1 [JNJ-38877605]

More lines, now with the values behind:

SMILES	Kd [1]	Kd [2]	Kd [3]	Kd [4]	Kd [5]	Kd [6]
Cc1cc2c(F)c(Oc3ncnn4cc(OC[C@@H](C)OC(=O)[C@H](C)N)c(C)c34)ccc2[nH]1 [BRIVANIB ALANINATE]	> 30 µM (inactive)	> 30 µM (inactive)	> 30 µM (inactive)	> 30 µM (inactive)	> 30 µM (inactive)	> 30 µM (inactive)
Cc1ccc(S(=O)(=O)Nc2nc3ccccc3nc2Nc2ccc3nsnc3c2)cc1	> 30 µM (inactive)	> 30 µM (inactive)	> 30 µM (inactive)	> 30 µM (inactive)	> 30 µM (inactive)	> 30 µM (inactive)
Cc1c(F)cc(C(=O)NC2CC2)cc1-c1ccc(C(=O)NCC(C)(C)C)cn1 [LOSMAPIMOD]	> 30 µM (inactive)	> 30 µM (inactive)	> 30 µM (inactive)	> 30 µM (inactive)	> 30 µM (inactive)	> 30 µM (inactive)
CCn1c(=O)c(-c2cc[nH]n2)cc2c(C)nc(N)nc21 [VOXTALISIB]	> 30 µM (inactive)	> 30 µM (inactive)	> 30 µM (inactive)	> 30 µM (inactive)	> 30 µM (inactive)	> 30 µM (inactive)
CC(=O)Nc1cccc(-n2c(=O)n(C3CC3)c(=O)c3c(Nc4ccc(I)cc4F)n(C)c(=O)c(C)c32)c1 [TRAMETINIB]	> 30 µM (inactive)	> 30 µM (inactive)	> 30 µM (inactive)	> 30 µM (inactive)	> 30 µM (inactive)	> 30 µM (inactive)
O=C(Nc1cccc(Cl)c1)Nc1ncc(CCNc2ncnc3ccsc23)s1 [SNS-314]	> 30 µM (inactive)	> 30 µM (inactive)	> 30 µM (inactive)	> 30 µM (inactive)	> 30 µM (inactive)	> 30 µM (inactive)
CN1CC[C@@H](c2c(O)cc(O)c3c(=O)cc(-c4ccccc4Cl)oc23)[C@@H]1CO	> 30 µM (inactive)	> 30 µM (inactive)	> 30 µM (inactive)	> 30 µM (inactive)	> 30 µM (inactive)	> 30 µM (inactive)
O=c1sn(-c2cccc3ccccc23)c(=O)n1Cc1ccccc1 [TIDEGLUSIB]	> 30 µM (inactive)	> 30 µM (inactive)	> 30 µM (inactive)	> 30 µM (inactive)	> 30 µM (inactive)	> 30 µM (inactive)
COc1cc(OC)c(/C=C/S(=O)(=O)Cc2ccc(OC)c(NCC(=O)O)c2)c(OC)c1 [RIGOSERTIB]	> 30 µM (inactive)	> 30 µM (inactive)	> 30 µM (inactive)	> 30 µM (inactive)	> 30 µM (inactive)	> 30 µM (inactive)
CC[C@H](Nc1ncnc2[nH]cnc12)c1nc2cccc(F)c2c(=O)n1-c1ccccc1 [IDELALISIB]	> 30 µM (inactive)	> 30 µM (inactive)	> 30 µM (inactive)	> 30 µM (inactive)	> 30 µM (inactive)	> 30 µM (inactive)
COC(=O)N[C@@H](C)CNc1nccc(-c2cn(C(C)C)nc2-c2cc(Cl)cc(NS(C)(=O)=O)c2F)n1 [ENCORAFENIB]	> 30 µM (inactive)	> 30 µM (inactive)	> 30 µM (inactive)	> 30 µM (inactive)	> 30 µM (inactive)	> 30 µM (inactive)
C1=C/COCc2cc(ccc2OCCN2CCCC2)Nc2nccc(n2)-c2cccc(c2)COC/1 [PACRITINIB]	0.394 µM (active)	> 30 µM (inactive)	> 30 µM (inactive)	> 30 µM (inactive)	> 30 µM (inactive)	> 30 µM (inactive)
COCCNCc1ccc(-c2cc3nccc(Oc4ccc(NC(=S)NC(=O)Cc5ccc(F)cc5)cc4F)c3s2)nc1 [GLESATINIB]	> 30 µM (inactive)	> 30 µM (inactive)	> 30 µM (inactive)	> 30 µM (inactive)	> 30 µM (inactive)	> 30 µM (inactive)
CNC(=O)CN1CCC(Oc2cc3c(Nc4cccc(Cl)c4F)ncnc3cc2OC)CC1 [SAPITINIB]	> 30 µM (inactive)	> 30 µM (inactive)	> 30 µM (inactive)	> 30 µM (inactive)	> 30 µM (inactive)	> 30 µM (inactive)
